Assay results from US20070087975A1, “Compound useful for the prevention and treatment of left ventricular hypertrophy in dialysed patients” (SIGMA-TAU INDUSTRIE FARMACEUTICHE RIUNITE SPA, priority 2005, published 2007).

Experiments:
[1] = system: left ventricular (LV) function; conditions: 58 patients with primary glomerulonephritis and moderate chronic renal failure; cited from earlier work
[2] = system: decompensated eccentric hypertrophy produced by myocardial infarction; conditions: rats without renal damages; similar to ACE inhibition; cited from earlier work
[3] = system: left ventricular hypertrophy (LVH) in ESRD dialysed patients; assay: Clinical trial of propionyl L-carnitine in ESRD patients on dialysis (multicentre, randomized, double-blind, placebo-controlled, echocardiography); format: in vivo, human; conditions: 26 weeks
Method: A clinical trial (multicentre, parallel, randomized, double-blind, dose- ranging placebo-controlled study in 300 patients) useful for evaluating both preventive and/or curative effect of the treatment with propionyl L-carnitine (3 and 6 mg/kg given intravenously three times a week at the end of the hemodyalisis session for 26 weeks) has been done.
1) male or female out-patients aged >18 years, suffering from ESRD on bicarbonate dialysis three times a week;
2) patients who have reached a certain degree of dialytic stability (at least since six months on dialysis), so that the variability due to the progressive patient adaptation of the therapeutic treatment is controlled, presenting no clinical signs of hydric overload at the end of dialysis;
3) patients showing a degree of cardiac deterioration defined as inter-ventricular septum and left ventricular wall thickness ≧11 mm;
4) patients with left ventricular ejection fraction >40%;
During the whole Randomised Treatment Period, all drugs considered indispensable for the treatment of the disease under study could be administrated providing that they were administered for at least three months prior to patient's enrollment, and that the dosage of those drugs remained stable throughout the whole treatment period. […]

SMILES	LV ejection fraction, early and late transmitral flow velocities and early to late LV inflow velocities ratio [1]	magnitude of decompensated eccentric hypertrophy produced by myocardial infarction [2]	effect on the signs of LVH, signs (a)-(c): septum and posterior wall thickness, end-systolic and end-diastolic LV size and volume, LV ejection fraction ([3]; 3 and 6 mg/kg i.v. three times a week at end of hemodialysis session, preliminary ANOVA analysis)	progression of the signs of LVH, points (a)-(c), in the treated group respect to its base line ([3]; T26 vs T0, 3 and 6 mg/kg i.v. three times a week, control group signs worsened)
C[C@H](CS)C(=O)N1CCC[C@H]1C(=O)O [captopril]	not significantly affected			
CCOC(=O)[C@H](CCc1ccccc1)N[C@@H](C)C(=O)N1CCC[C@H]1C(=O)O [enalapril]	not significantly affected			
CCC(=O)O[C@H](CC(=O)[O-])C[N+](C)(C)C [propionyl L-carnitine]		reduces the magnitude of decompensated eccentric hypertrophy	useful for treating the signs of LVH	able to reduce the progression of the signs of LVH
